Broadly, the EC50 is the concentration needed to bring the measured effect to its halfway point. Low values mean an effect from little substance, high ones a need for much substance.

The text below walks through data of patent US8604019B2, “Compounds for the treatment and prophylaxis of respiratory syncytial virus disease” (Hoffman-La Roche Inc., priority 2011, dated 2013).

One assay concerns RSV infection.
Assay: not given
The settings on record: intramuscularly at 15 mg/kg once a month for the duration of RSV season, selected infants; cited from earlier work.
As to “palivizumab: a humanized monoclonal antibody against RSV fusion (F) protein approved for prophylaxis in high-risk infants”, the “reduction of hospitalization rate caused by RSV infection” value is 45-55%.

The subject of the next assay is RSV Long strain (ATCC, catalog number: VR-26). Kind of assay: Viral cytopathic effect (CPE) assay, anti-RSV activity. Format: cell-based. The settings on record: human respiratory syncytial virus, 144 h, 6 days, cell viability by Cell Counting kit-8. As for the experimental part: Viral cytopathic effect (CPE) assay: To measure anti-RSV activity of compounds, 96-well plates are seeded with 6×10^3 cells per well in Dulbecco's modified Eagle's medium (DMEM) containing 10% fetal bovine serum (FBS). Cells are infected the next day with sufficient RSV Long strain (ATCC, catalog number: VR-26) to produce an approximately 80-90% cytopathic effect after 6 days, in the presence of serial half-log diluted compound in a total volume of 200 μL per well. The viability of cells is assessed after 6 days using Cell Counting kit-8 (Dojindo Molecular Technologies). The absorbance at 450 nm and referenced at 630 nm is measured to determine 50% effective concentration (EC50).
The molecule `Cc1cc2nc(N3CC[S+]([O-])c4ccccc4C3)nc(NCCCN)c2s1` (centres unmarked) [Example 3-5, N-[6-Methyl-2-(1-oxido-2,3-dihydro-1,4-benzothiazepin-4(5H)-yl)thieno[3,2-d]pyrimidin-4-yl]propane-1,3-diamine] showed a concentration for a half-maximal effect (EC50) of 0.232 µM.
Regarding `Cc1cc2nc(N3CCOc4ccccc4C3)nc(NCCCN)c2s1` [Example 1-11, N-[2-(2,3-Dihydro-1,4-benzoxazepin-4(5H)-yl)-6-methylthieno[3,2-d]pyrimidin-4-yl]propane-1,3-diamine], the EC50 is 1.35 µM.
`Cc1cc2nc(N3CCSc4ccccc4C3)nc(NCCCN)c2s1` [Example 1-10, N-[2-(2,3-Dihydro-1,4-benzothiazepin-4(5H)-yl)-6-methylthieno[3,2-d]pyrimidin-4-yl]propane-1,3-diamine]: it took 0.735 µM to reach a half-maximal effect (EC50).
With `NCC1(CNc2nc(N3CCC(F)(F)c4ccccc4C3)nc3ccsc23)COC1` [Example 1-8, N-{[3-(Aminomethyl)oxetan-3-yl]methyl}-2-(5,5-difluoro-1,3,4,5-tetrahydro-2H-2-benzazepin-2-yl)thieno[3,2-d]pyrimidin-4-amine], a half-maximal effect (EC50) was put at 0.022 µM.
Same read-out and setting: the same measure for `Cc1cc2nc(N3CC[S+]([O-])c4ccccc4C3)nc(NC3CNC[C@H]3F)c2s1` (mixture of isomers) [Example 4-1, N—[trans-(±)-4-Fluoropyrrolidin-3-yl]-6-methyl-2-(1-oxido-2,3-dihydro-1,4-benzothiazepin-4(5H)-yl)thieno[3,2-d]pyrimidin-4-amine]: 0.03 µM; for `NCCCNc1nc(N2CCSc3ccccc3C2)nc2ccsc12` [Example 1-5, N-[2-(2,3-Dihydro-1,4-benzothiazepin-4(5H)-yl)thieno[3,2-d]pyrimidin-4-yl]propane-1,3-diamine]: 0.384 µM; for `NCCCNc1nc(N2CC[S+]([O-])c3ccccc3C2)nc2ccsc12` (centres unmarked) [Example 1-2, N-[2-(1-Oxido-2,3-dihydro-1,4-benzothiazepin-4(5H)-yl)thieno[3,2-d]pyrimidin-4-yl]propane-1,3-diamine]: 0.255 µM.
`NC1(CNc2nc(N3CCS(=O)(=O)c4ccccc4C3)nc3ccsc23)COC1` [Example 2-1, N-[(3-Aminooxetan-3-yl)methyl]-2-(1,1-dioxido-2,3-dihydro-1,4-benzothiazepin-4(5H)-yl)thieno[3,2-d]pyrimidin-4-amine] yielded an EC50 of 0.007 µM.
The same measure, in the same setting: in the case of `Cc1cc2nc(N3CCS(=O)(=O)c4ccccc4C3)nc(NCCCN)c2s1` [Example 1-14, N-[2-(1,1-Dioxido-2,3-dihydro-1,4-benzothiazepin-4(5H)-yl)-6-methylthieno[3,2-d]pyrimidin-4-yl]propane-1,3-diamine] it was 0.073 µM; in that of `NCCCNc1nc(N2CCS(=O)(=O)c3ccccc3C2)nc2ccsc12` [Example 1-15, N-[2-(1,1-Dioxido-2,3-dihydro-1,4-benzothiazepin-4(5H)-yl)thieno[3,2-d]pyrimidin-4-yl]propane-1,3-diamine], 0.076 µM.
`Cc1cc2nc(N3CCCc4ccccc4C3)nc(NCCCN)c2s1` [Example 1-13, N-[6-Methyl-2-(1,3,4,5-tetrahydro-2H-2-benzazepin-2-yl)thieno[3,2-d]pyrimidin-4-yl]propane-1,3-diamine] returned an EC50 of 1.44 µM.
The same measure, in the same setting: the same measure for `NCC1(Nc2nc(N3CCS(=O)(=O)c4ccccc4C3)nc3ccsc23)COC1` [Example 2-2, N-[3-(aminomethyl)oxetan-3-yl]-2-(1,1-dioxido-2,3-dihydro-1,4-benzothiazepin-4(5H)-yl)thieno[3,2-d]pyrimidin-4-amine]: 0.897 µM; for `Cc1cc2nc(N3CCC(F)(F)c4ccccc4C3)nc(NCCCN)c2s1` [Example 1-12, N-[2-(5,5-Difluoro-1,3,4,5-tetrahydro-2H-2-benzazepin-2-yl)-6-methylthieno[3,2-d]pyrimidin-4-yl]propane-1,3-diamine]: 1.01 µM.
The same measure, in the same setting: in the case of `NCCCNc1nc(N2CCC(F)(F)c3ccccc3C2)nc2ccsc12` [Example 1-7, N-[2-(5,5-Difluoro-1,3,4,5-tetrahydro-2H-2-benzazepin-2-yl)thieno[3,2-d]pyrimidin-4-yl]propane-1,3-diamine] it was 0.669 µM; in that of `NC1(CNc2nc(N3CC[S@@+]([O-])c4ccccc4C3)nc3ccsc23)COC1` [Example 2-3, N-[(3-Aminooxetan-3-yl)methyl]-2-[(1R)-1-oxido-2,3-dihydro-1,4-benzothiazepin-4(5H)-yl]thieno[3,2-d]pyrimidin-4-amine], 0.068 µM.
Still for that read-out and setting: in the case of `NCC(F)(F)CNc1nc(N2CCS(=O)(=O)c3ccccc3C2)nc2ccsc12` [Example 1-1, N-[2-(1,1-Dioxido-2,3-dihydro-1,4-benzothiazepin-4(5H)-yl)thieno[3,2-d]pyrimidin-4-yl]-2,2-difluoropropane-1,3-diamine] it was 0.215 µM; in that of `NCCCNc1nc(N2CCCc3ccccc3C2)nc2ccsc12` [Example 1-9, N-[2-(1,3,4,5-Tetrahydro-2H-2-benzazepin-2-yl)thieno[3,2-d]pyrimidin-4-yl]propane-1,3-diamine], 0.667 µM.
Molecule `Cc1cc2nc(N3CC[S+]([O-])c4ccccc4C3)nc(NCC(F)CN)c2s1` (centres unmarked) [Example 3-2, 2-Fluoro-N-[6-methyl-2-(1-oxido-2,3-dihydro-1,4-benzothiazepin-4(5H)-yl)thieno[3,2-d]pyrimidin-4-yl]propane-1,3-diamine] displayed an EC50 of 0.468 µM.
Take `NCCCNc1nc(N2CCOc3ccccc3C2)nc2ccsc12` [Example 1-6, N-[2-(2,3-Dihydro-1,4-benzoxazepin-4(5H)-yl)thieno[3,2-d]pyrimidin-4-yl]propane-1,3-diamine]: the EC50 came out at 2.21 µM.
`Cc1cc2nc(N3CC[S+]([O-])c4ccccc4C3)nc(NCCN)c2s1` (centres unmarked) [Example 3-3, N-[6-Methyl-2-(1-oxido-2,3-dihydro-1,4-benzothiazepin-4(5H)-yl)thieno[3,2-d]pyrimidin-4-yl]ethane-1,2-diamine] registered a 50% effective concentration (EC50) of 0.086 µM.
Still for that read-out and setting: the same measure for `NCCCNc1nc(N2CCNc3ccccc3C2)nc2ccsc12` [Example 1-4, N-[2-(1,2,3,5-Tetrahydro-4H-1,4-benzodiazepin-4-yl)thieno[3,2-d]pyrimidin-4-yl]propane-1,3-diamine]: 9.47 µM.
`Cc1cc2nc(N3CC[S+]([O-])c4ccccc4C3)nc(NCC3(N)COC3)c2s1` (centres unmarked) [Example 3-1, N-[(3-Aminooxetan-3-yl)methyl]-6-methyl-2-(1-oxido-2,3-dihydro-1,4-benzothiazepin-4(5H)-yl)thieno[3,2-d]pyrimidin-4-amine] returned an EC50 of 0.026 µM.
On the same count and under the same terms, in the case of `NC1(CNc2nc(N3CC[S@+]([O-])c4ccccc4C3)nc3ccsc23)COC1` [Example 2-4, N-[(3-aminooxetan-3-yl)methyl]-2-[(1S)-1-oxido-2,3-dihydro-1,4-benzothiazepin-4(5H)-yl]thieno[3,2-d]pyrimidin-4-amine] it was 0.003 µM; in that of `Cc1cc2nc(N3CC[S+]([O-])c4ccccc4C3)nc(NCC3(CN)COC3)c2s1` (centres unmarked) [Example 3-4, N-{[3-(Aminomethyl)oxetan-3-yl]methyl}-6-methyl-2-(1-oxido-2,3-dihydro-1,4-benzothiazepin-4(5H)-yl)thieno[3,2-d]pyrimidin-4-amine], 0.006 µM.
On the same count and under the same terms, in the case of `Cc1cc2nc(N3CCNc4ccccc4C3)nc(NCCCN)c2s1` [Example 1-3, N-[6-Methyl-2-(1,2,3,5-tetrahydro-4H-1,4-benzodiazepin-4-yl)thieno[3,2-d]pyrimidin-4-yl]propane-1,3-diamine] it was 3.12 µM; in that of `Cc1cc2nc(N3CC[S+]([O-])c4ccccc4C3)nc(NC3CCNC3)c2s1` (centres unmarked) [Example 4-2, 6-Methyl-2-(1-oxido-2,3-dihydro-1,4-benzothiazepin-4(5H)-yl)-N-(pyrrolidin-3-yl)thieno[3,2-d]pyrimidin-4-amine], 0.676 µM.

A further assay deals with RSV.
Assay: not given
The following applies: Phase III clinical trials; cited from earlier work.
On to “motavizumab: A newer version monoclonal antibody designed as potential replacement of palivizumab”, for which the benefit over palivizumab result is recorded as “failed to show additional benefit over palivizumab”.

In another assay the test system is established RSV infection.
Assay: not given
The settings on record: in vivo; cited from earlier work.
Consider “palivizumab: a humanized monoclonal antibody against RSV fusion (F) protein approved for prophylaxis in high-risk infants”, for which the “efficacy in treatment of established RSV infection” value is “not effective”.
